Laboratory results: ChEMBL document CHEMBL3576778, “Structure-Activity Relationship Studies of a Series of Semisynthetic Lipopeptides Leading to the Discovery of Surotomycin, a Novel Cyclic Lipopeptide Being Developed for the Treatment of Clostridium difficile-Associated Diarrhea” (J Med Chem, 2015)
In brackets after ≈: the same amount, converted by molar mass.

Tests used:
Type in all cases: functional
Enterococcus faecalis = test: Antimicrobial activity against daptomycin-resistant Enterococcus faecalis ATCC 49452 incubated anaerobically at 37 degC for 48 hrs by agar dilution method; conditions: ATCC 49452, 48 h
Staphylococcus aureus [1] = test: Antimicrobial activity against daptomycin-susceptible Staphylococcus aureus ATCC 29213 incubated anaerobically at 37 degC for 48 hrs by agar dilution method; conditions: ATCC 29213, 48 h
Clostridioides difficile [2] = test: Antimicrobial activity against daptomycin-resistant Clostridium difficile NAP1 incubated anaerobically at 37 degC for 48 hrs by agar dilution method; conditions: NAP1, 48 h
Clostridioides difficile [3] = test: Antimicrobial activity against daptomycin-resistant Clostridium difficile ATCC 43596 infected in Syrian golden hamster model of Clostridium difficile-associated diarrhea assessed as protection against microbial infection by measuring survival at day 25 to 26 at 0.5 mg/kg treated once daily for 5 consecutive days starting 4 hrs after spore inoculation
Enterococcus faecium = test: Antimicrobial activity against daptomycin-resistant Enterococcus faecium ATCC 6569 incubated anaerobically at 37 degC for 48 hrs by agar dilution method; conditions: ATCC 6569, 48 h
Staphylococcus aureus [4] = test: Antimicrobial activity against daptomycin-non-susceptible Staphylococcus aureus 278 incubated anaerobically at 37 degC for 48 hrs by agar dilution method; conditions: Staphylococcus aureus, 278, 48 h
Staphylococcus aureus [5] = test: Antimicrobial activity against daptomycin-non-susceptible Staphylococcus aureus 5063 incubated anaerobically at 37 degC for 48 hrs by agar dilution method; conditions: Staphylococcus aureus, 5063, 48 h
Staphylococcus aureus [6] = test: Antimicrobial activity against daptomycin-non-susceptible Staphylococcus aureus 5017 incubated anaerobically at 37 degC for 48 hrs by agar dilution method; conditions: Staphylococcus aureus, 5017, 48 h
Staphylococcus aureus [7] = test: Antimicrobial activity against daptomycin-non-susceptible Staphylococcus aureus 5030 incubated anaerobically at 37 degC for 48 hrs by agar dilution method; conditions: Staphylococcus aureus, 5030, 48 h
Staphylococcus aureus [8] = test: Antimicrobial activity against daptomycin-non-susceptible Staphylococcus aureus 5004 incubated anaerobically at 37 degC for 48 hrs by agar dilution method; conditions: Staphylococcus aureus, 5004, 48 h
Staphylococcus aureus [9] = test: Antimicrobial activity against daptomycin-non-susceptible Staphylococcus aureus 42 incubated anaerobically at 37 degC for 48 hrs by agar dilution method; conditions: Staphylococcus aureus, 42, 48 h
Staphylococcus aureus [10] = test: Antimicrobial activity against daptomycin-non-susceptible Staphylococcus aureus 1616 incubated anaerobically at 37 degC for 48 hrs by agar dilution method; conditions: Staphylococcus aureus, 1616, 48 h
Staphylococcus aureus [11] = test: Antimicrobial activity against daptomycin-non-susceptible Staphylococcus aureus 5034 incubated anaerobically at 37 degC for 48 hrs by agar dilution method; conditions: Staphylococcus aureus, 5034, 48 h
Staphylococcus aureus [12] = test: Antimicrobial activity against daptomycin-non-susceptible Staphylococcus aureus 5006 incubated anaerobically at 37 degC for 48 hrs by agar dilution method; conditions: Staphylococcus aureus, 5006, 48 h
Staphylococcus aureus [13] = test: Antimicrobial activity against daptomycin-non-susceptible Staphylococcus aureus 5012 incubated anaerobically at 37 degC for 48 hrs by agar dilution method; conditions: Staphylococcus aureus, 5012, 48 h
Staphylococcus aureus [14] = test: Antimicrobial activity against daptomycin-non-susceptible Staphylococcus aureus 5091 incubated anaerobically at 37 degC for 48 hrs by agar dilution method; conditions: Staphylococcus aureus, 5091, 48 h
Staphylococcus aureus [15] = test: Antimicrobial activity against daptomycin-non-susceptible Staphylococcus aureus 1179 incubated anaerobically at 37 degC for 48 hrs by agar dilution method; conditions: Staphylococcus aureus, 1179, 48 h
Staphylococcus aureus [16] = test: Antimicrobial activity against daptomycin-non-susceptible Staphylococcus aureus 5033 incubated anaerobically at 37 degC for 48 hrs by agar dilution method; conditions: Staphylococcus aureus, 5033, 48 h
Staphylococcus aureus [17] = test: Antimicrobial activity against daptomycin-non-susceptible Staphylococcus aureus 1145 incubated anaerobically at 37 degC for 48 hrs by agar dilution method; conditions: Staphylococcus aureus, 1145, 48 h
Staphylococcus aureus [18] = test: Antimicrobial activity against daptomycin-non-susceptible Staphylococcus aureus 5010 incubated anaerobically at 37 degC for 48 hrs by agar dilution method; conditions: Staphylococcus aureus, 5010, 48 h
Staphylococcus aureus [19] = test: Antimicrobial activity against daptomycin-non-susceptible Staphylococcus aureus 5081 incubated anaerobically at 37 degC for 48 hrs by agar dilution method; conditions: Staphylococcus aureus, 5081, 48 h
Staphylococcus aureus [20] = test: Antimicrobial activity against daptomycin-non-susceptible Staphylococcus aureus 5016 incubated anaerobically at 37 degC for 48 hrs by agar dilution method; conditions: Staphylococcus aureus, 5016, 48 h
Staphylococcus aureus [21] = test: Antimicrobial activity against daptomycin-non-susceptible Staphylococcus aureus 1326 incubated anaerobically at 37 degC for 48 hrs by agar dilution method; conditions: Staphylococcus aureus, 1326, 48 h
Staphylococcus aureus [22] = test: Antimicrobial activity against daptomycin-non-susceptible Staphylococcus aureus 5059 incubated anaerobically at 37 degC for 48 hrs by agar dilution method; conditions: Staphylococcus aureus, 5059, 48 h
Staphylococcus aureus [23] = test: Antimicrobial activity against daptomycin-non-susceptible Staphylococcus aureus 1146 incubated anaerobically at 37 degC for 48 hrs by agar dilution method; conditions: Staphylococcus aureus, 1146, 48 h
Staphylococcus aureus [24] = test: Antimicrobial activity against daptomycin-non-susceptible Staphylococcus aureus 5080 incubated anaerobically at 37 degC for 48 hrs by agar dilution method; conditions: Staphylococcus aureus, 5080, 48 h
Staphylococcus aureus [25] = test: Antimicrobial activity against daptomycin-non-susceptible Staphylococcus aureus 5005 incubated anaerobically at 37 degC for 48 hrs by agar dilution method; conditions: Staphylococcus aureus, 5005, 48 h
Staphylococcus aureus [26] = test: Antimicrobial activity against daptomycin-non-susceptible Staphylococcus aureus 5076 incubated anaerobically at 37 degC for 48 hrs by agar dilution method; conditions: Staphylococcus aureus, 5076, 48 h
Staphylococcus aureus [27] = test: Antimicrobial activity against daptomycin-non-susceptible Staphylococcus aureus 5060 incubated anaerobically at 37 degC for 48 hrs by agar dilution method; conditions: Staphylococcus aureus, 5060, 48 h
Staphylococcus aureus [28] = test: Antimicrobial activity against daptomycin-non-susceptible Staphylococcus aureus 5008 incubated anaerobically at 37 degC for 48 hrs by agar dilution method; conditions: Staphylococcus aureus, 5008, 48 h
Staphylococcus aureus [29] = test: Antimicrobial activity against daptomycin-non-susceptible Staphylococcus aureus 5003 incubated anaerobically at 37 degC for 48 hrs by agar dilution method; conditions: Staphylococcus aureus, 5003, 48 h
Staphylococcus aureus [30] = test: Antimicrobial activity against daptomycin-non-susceptible Staphylococcus aureus 5014 incubated anaerobically at 37 degC for 48 hrs by agar dilution method; conditions: Staphylococcus aureus, 5014, 48 h

CCCCCCCCc1ccc(C(=O)N[C@@H](Cc2c[nH]c3ccccc23)C(=O)N[C@@H](CC(N)=O)C(=O)N[C@@H](CC(=O)O)C(=O)N[C@@H]2C(=O)NCC(=O)N[C@@H](CCCN)C(=O)N[C@H](CC(=O)O)C(=O)N[C@H](C)C(=O)N[C@@H](CC(=O)O)C(=O)NCC(=O)N[C@H](CO)C(=O)N[C@@H]([C@@H](C)CC(=O)O)C(=O)N[C@@H](CC(=O)c3ccccc3N)C(=O)O[C@@H]2C)cc1
MIC (Enterococcus faecalis): 8 µg/mL (≈ 4.75 µM) | MIC (Staphylococcus aureus [1]): 0.5 µg/mL (≈ 0.297 µM) | MIC (Clostridioides difficile [2]): 1 µg/mL (≈ 0.594 µM) | survival at 0.5 mg/kg (Clostridioides difficile [3]): 20% | MIC (Enterococcus faecium): 4 µg/mL (≈ 2.38 µM)

CCCCCCCc1ccc(C(=O)N[C@@H](Cc2c[nH]c3ccccc23)C(=O)N[C@@H](CC(N)=O)C(=O)N[C@@H](CC(=O)O)C(=O)N[C@@H]2C(=O)NCC(=O)N[C@@H](CCCN)C(=O)N[C@H](CC(=O)O)C(=O)N[C@H](C)C(=O)N[C@@H](CC(=O)O)C(=O)NCC(=O)N[C@H](CO)C(=O)N[C@@H]([C@@H](C)CC(=O)O)C(=O)N[C@@H](CC(=O)c3ccccc3N)C(=O)O[C@@H]2C)cc1
MIC (Enterococcus faecalis): 8 µg/mL (≈ 4.79 µM) | MIC (Staphylococcus aureus [1]): 0.25 µg/mL (≈ 0.15 µM) | MIC (Clostridioides difficile [2]): 0.5 µg/mL (≈ 0.3 µM) | survival at 0.5 mg/kg (Clostridioides difficile [3]): 80% | MIC (Enterococcus faecium): 4 µg/mL (≈ 2.4 µM)

CCCCCCCCCC(=O)N[C@@H](Cc1c[nH]c2ccccc12)C(=O)N[C@H](CC(N)=O)C(=O)N[C@@H](CC(=O)O)C(=O)N[C@@H]1C(=O)NCC(=O)N[C@@H](CCCN)C(=O)N[C@@H](CC(=O)O)C(=O)N[C@H](C)C(=O)N[C@@H](CC(=O)O)C(=O)NCC(=O)N[C@H](CO)C(=O)N[C@@H]([C@H](C)CC(=O)O)C(=O)N[C@@H](CC(=O)c2ccccc2N)C(=O)O[C@@H]1C
MIC (Staphylococcus aureus [4]): 16 µg/mL (≈ 9.87 µM) | MIC (Staphylococcus aureus [5]): 8 µg/mL (≈ 4.94 µM) | MIC (Staphylococcus aureus [6]): 4 µg/mL (≈ 2.47 µM) | MIC (Staphylococcus aureus [7]): 8 µg/mL (≈ 4.94 µM) | MIC (Staphylococcus aureus [8]): 1 µg/mL (≈ 0.617 µM) | MIC (Staphylococcus aureus [9]): 0.5 µg/mL (≈ 0.309 µM) | MIC (Enterococcus faecalis): > 32 µg/mL | MIC (Staphylococcus aureus [10]): 16 µg/mL (≈ 9.87 µM) | MIC (Staphylococcus aureus [1]): 0.5 µg/mL (≈ 0.309 µM) | MIC (Staphylococcus aureus [11]): 2 µg/mL (≈ 1.23 µM) | MIC (Staphylococcus aureus [12]): 2 µg/mL (≈ 1.23 µM) | MIC (Staphylococcus aureus [13]): 2 µg/mL (≈ 1.23 µM) | MIC (Staphylococcus aureus [14]): 2 µg/mL (≈ 1.23 µM) | MIC (Staphylococcus aureus [15]): 2 µg/mL (≈ 1.23 µM) | MIC (Staphylococcus aureus [16]): 1 µg/mL (≈ 0.617 µM) | MIC (Staphylococcus aureus [17]): 1 µg/mL (≈ 0.617 µM) | MIC (Staphylococcus aureus [18]): 0.5 µg/mL (≈ 0.309 µM) | MIC (Staphylococcus aureus [19]): 4 µg/mL (≈ 2.47 µM) | MIC (Staphylococcus aureus [20]): 4 µg/mL (≈ 2.47 µM) | MIC (Staphylococcus aureus [21]): 4 µg/mL (≈ 2.47 µM) | MIC (Staphylococcus aureus [22]): 4 µg/mL (≈ 2.47 µM) | MIC (Staphylococcus aureus [23]): 1 µg/mL (≈ 0.617 µM) | MIC (Staphylococcus aureus [24]): 4 µg/mL (≈ 2.47 µM) | MIC (Clostridioides difficile [2]): 2 µg/mL (≈ 1.23 µM) | MIC (Staphylococcus aureus [25]): 4 µg/mL (≈ 2.47 µM) | MIC (Staphylococcus aureus [26]): 2 µg/mL (≈ 1.23 µM) | MIC (Staphylococcus aureus [27]): 4 µg/mL (≈ 2.47 µM) | MIC (Staphylococcus aureus [28]): 2 µg/mL (≈ 1.23 µM) | MIC (Staphylococcus aureus [29]): 2 µg/mL (≈ 1.23 µM) | MIC (Staphylococcus aureus [30]): 0.5 µg/mL (≈ 0.309 µM) | MIC (Enterococcus faecium): > 32 µg/mL

CCCCCCCc1csc(C(=O)N[C@@H](Cc2c[nH]c3ccccc23)C(=O)N[C@@H](CC(N)=O)C(=O)N[C@@H](CC(=O)O)C(=O)N[C@@H]2C(=O)NCC(=O)N[C@@H](CCCN)C(=O)N[C@H](CC(=O)O)C(=O)N[C@H](C)C(=O)N[C@@H](CC(=O)O)C(=O)NCC(=O)N[C@H](CO)C(=O)N[C@@H]([C@@H](C)CC(=O)O)C(=O)N[C@@H](CC(=O)c3ccccc3N)C(=O)O[C@@H]2C)c1
MIC (Enterococcus faecalis): 32 µg/mL (≈ 19.1 µM) | MIC (Staphylococcus aureus [1]): 0.125 µg/mL (≈ 0.0746 µM) | MIC (Clostridioides difficile [2]): 2 µg/mL (≈ 1.19 µM) | survival at 0.5 mg/kg (Clostridioides difficile [3]): 60% | MIC (Enterococcus faecium): 16 µg/mL (≈ 9.55 µM)

C[C@H]1NC(=O)C(CC(=O)O)NC(=O)[C@H](CCCN)NC(=O)CNC(=O)[C@@H](NC(=O)[C@H](CC(=O)O)NC(=O)[C@H](CC(N)=O)NC(=O)[C@H](Cc2c[nH]c3ccccc23)NC(=O)CCCCCCC2CCCCC2)[C@@H](C)OC(=O)[C@H](CC(=O)c2ccccc2N)NC(=O)[C@H]([C@@H](C)CC(=O)O)NC(=O)[C@@H](CO)NC(=O)CNC(=O)[C@H](CC(=O)O)NC1=O (single isomer, unassigned)
MIC (Enterococcus faecalis): 16 µg/mL (≈ 9.63 µM) | MIC (Staphylococcus aureus [1]): 0.5 µg/mL (≈ 0.301 µM) | MIC (Clostridioides difficile [2]): 1 µg/mL (≈ 0.602 µM) | MIC (Enterococcus faecium): 8 µg/mL (≈ 4.82 µM)
